Experimental data as given in publication PMC8134483 (Scientific Reports, 2021).
Entries after “also recorded” stand apart in the source; their conditions may differ. Like-named read-outs stand apart in the source and are kept apart here.

Key:
hCB1R [1] = molecular target: T1, hCB1R (Homo sapiens, UniProt P21554); test: biochemical; format: binding; settings: for CB1R [^3H]CP55,940 Emin: bottom of the concentration–response curve, mean ± SEM; for CB1R versus CB2R selectivity, receptor affinity: CB1R vs CB2R [^3H]CP55,940 binding
T1 construct: expressed in transfected cells; host or cells: CHO-K1
T1 sequence (P21554 whole entry): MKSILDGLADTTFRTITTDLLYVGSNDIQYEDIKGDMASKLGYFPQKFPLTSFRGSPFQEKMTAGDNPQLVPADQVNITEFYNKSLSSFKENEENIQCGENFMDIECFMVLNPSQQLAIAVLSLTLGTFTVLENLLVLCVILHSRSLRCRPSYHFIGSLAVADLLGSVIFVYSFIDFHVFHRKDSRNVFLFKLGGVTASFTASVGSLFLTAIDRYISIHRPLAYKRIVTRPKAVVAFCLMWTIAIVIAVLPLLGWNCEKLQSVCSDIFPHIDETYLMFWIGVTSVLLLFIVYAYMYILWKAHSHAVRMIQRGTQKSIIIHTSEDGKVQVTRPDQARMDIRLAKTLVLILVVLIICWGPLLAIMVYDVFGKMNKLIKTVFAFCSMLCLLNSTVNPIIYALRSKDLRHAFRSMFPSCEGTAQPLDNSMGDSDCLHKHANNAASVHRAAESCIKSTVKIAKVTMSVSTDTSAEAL

hCB1R [2] = molecular target: T1, hCB1R; test: cell-based; format: cell-based; settings: for EC50: CHO hCB1R, 10 µM FSK, 90 min, value with 95% CI, read-out: CB1R cAMP Inhibition EC50; for Emax: read-out: CB1R cAMP Inhibition Emax; for CB1R-dependent inhibition of FSK-stimulated cAMP, activity in words: relative to CP55940
hCB1R [3] = molecular target: T1, hCB1R; test: cell-based; format: cell-based; settings: for CB1R versus CB2R selectivity, βarrestin2 recruitment: CB1R vs CB2R; for EC50: CHO hCB1R, 90 min, value with 95% CI, read-out: CB1R βarrestin2 recruitment EC50; for Emax: read-out: CB1R βarrestin2 recruitment Emax; for βarrestin2 recruitment to CB1R, activity in words: relative to CP55940
hCB2R [4] = molecular target: T2, hCB2R (Homo sapiens, UniProt P34972); test: [^3H]CP55,940 competition (radioligand displacement) binding to CB2R; settings: for CB2R [^3H]CP55,940 Emin: bottom of the concentration–response curve, mean ± SEM
T2 construct: host or cells: CHO-K1 (PathHunter)
T2 sequence (P34972 whole entry): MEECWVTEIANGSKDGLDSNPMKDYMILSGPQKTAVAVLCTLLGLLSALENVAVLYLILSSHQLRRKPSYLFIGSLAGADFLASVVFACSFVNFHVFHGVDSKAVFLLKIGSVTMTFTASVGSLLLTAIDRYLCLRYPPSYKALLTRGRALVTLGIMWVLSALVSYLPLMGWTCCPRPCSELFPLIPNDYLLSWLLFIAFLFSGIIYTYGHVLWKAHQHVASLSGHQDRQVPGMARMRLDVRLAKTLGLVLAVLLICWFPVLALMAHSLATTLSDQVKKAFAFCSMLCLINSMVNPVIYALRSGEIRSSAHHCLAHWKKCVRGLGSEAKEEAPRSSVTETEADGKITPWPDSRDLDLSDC

hCB2R [5] = molecular target: T2, hCB2R; test: HitHunter inhibition of FSK-stimulated cAMP, CB2R; format: cell-based
hCB2R [6] = molecular target: T2, hCB2R; test: PathHunter βarrestin2 recruitment, CB2R; format: cell-based; settings: for βarrestin2 recruitment to CB2R, activity in words: relative to CP55,940
hCB2R [7] = molecular target: T2, hCB2R; test: CB2R bias analysis (operational model, cAMP inhibition vs βarrestin2); format: cell-based; settings: CP55,940 as reference agonist; >0 cAMP bias, <0 βarrestin2 bias
Experimental: Estimates of Ki, EC50, Emin, and Emax were determined using non-linear regression with variable slope (four parameters) (GraphPad, Prism, v. 8.0). […] One-way analysis of variance (ANOVA), followed by Tukey’s post-hoc test, was used for statistical analyses (p < 0.05 determined to be significant); and Bartlett’s test was used to confirm homogeneity of variance (GraphPad).

Compound | Ki (hCB1R [1]) | CB1R [^3H]CP55,940 Emin (hCB1R [1]) | EC50 (hCB1R [2]) | Emax (hCB1R [2]) | CB1R versus CB2R selectivity, βarrestin2 recruitment (hCB1R [3]) | EC50 (hCB1R [3]) | Emax (hCB1R [3]) | Affinity for CB2R compared with CP55,940, in words (hCB2R [4]) | Ki (hCB2R [4]) | CB2R [^3H]CP55,940 Emin (hCB2R [4]) | EC50 (hCB2R [5]) | Emax (hCB2R [5]) | EC50 (hCB2R [6]) | Emax (hCB2R [6]) | βarrestin2 recruitment to CB2R, activity in words (hCB2R [6]) | CB2R bias between cAMP inhibition and βarrestin2 recruitment, ∆∆LogR (cAMP—βarr2), in words (hCB2R [7]) | CB1R versus CB2R selectivity, receptor affinity (hCB1R [1]) | CB1R versus CB2R selectivity, cAMP inhibition potency (hCB1R [2]; CB1R vs CB2R) | βarrestin2 recruitment to CB1R, activity in words (hCB1R [3]) | further results
COC(=O)[C@H](Cc1ccccc1)NC(=O)c1cn(CCCCCF)c2ccccc12 [5-fluoro MPP-PICA] | 1200 nM | 59 ± 18 % | 6.4 nM | 92 ± 6.8% | minimally active at CB1R but agonists at CB2R | > 10000 nM | 170 ± 9.8% | significantly less affinity | 540 nM | 89 ± 6.3 % | 12 nM | 110 ± 13% | 630 nM | 82 ± 1.9% | not different with regard to potency relative to the reference agonist CP55,940, and produced supramaximal EMax responses | did not display a bias |  |  |  | Affinity for CB1R compared with CP55,940, in words (hCB1R [1]): significantly less affinity
N#CCCCCn1cc(C(=O)c2cccc3ccccc23)c2ccccc21 [AM 2232] | 0.31 nM | 66 ± 3.6 % | 190 nM | 100 ± 9.3% |  | > 10000 nM | 68 ± 1.6% | significantly less affinity | 600 nM | 73 ± 6.2 % | 1.7 nM | 86 ± 1.9% | 130 nM | 130 ± 19% | greater potency and produced supramaximal EMax responses | significant bias toward the inhibition of cAMP | greater affinity at CB1R relative to CB2R | more potent at CB2R relative to CB1R |  | CB1R-dependent inhibition of FSK-stimulated cAMP, activity in words (hCB1R [2]): significantly lower potency relative to CP55940, but retained full (i.e., 100%) efficacy
O=C(c1ccc(Cl)c2ccccc12)c1cn(CCCCCF)c2ccccc12 [Cl 2201] | 0.09 nM | 76 ± 2.8 % | 2.6 nM | 89 ± 3.9% |  | > 10000 nM | 16 ± 1% |  | 26 nM | 66 ± 2.5 % | 1 nM | 110 ± 8.4% | 120 nM | 17 ± 1.1% |  | significant bias toward the inhibition of cAMP | greater affinity at CB1R relative to CB2R |  | Inactive at βarrestin2 | 
CCCCCn1c2ccccc2c2cc(C(=O)c3cccc4ccccc34)ccc21 [EG 018] |  | 68 ± 6.1 % |  | 104 ± 18% |  |  | 5.2 ± 0.54% | significantly greater affinity | 1.9 nM | 53 ± 4.0 % |  | 85 ± 17% |  | 10 ± 1.9% |  | significant bias toward the inhibition of cAMP |  |  | Inactive at βarrestin2 | CB1R-dependent inhibition of FSK-stimulated cAMP, activity in words (hCB1R [2]): significantly lower potency relative to CP55940, but retained full (i.e., 100%) efficacy; EC50 (hCB2R [5]; CHO hCB2R, 10 µM FSK, 90 min, value with 95% CI, read-out: CB2R cAMP Inhibition EC50): 51 nM; EC50 (hCB2R [6]; CHO hCB2R, 90 min, value with 95% CI, read-out: CB2R βarrestin2 recruitment EC50): 770 nM
O=C(Nc1cccc2ccccc12)c1cn(Cc2ccc(F)cc2)c2ccccc12 [FDU-NNEI] | 14 nM | 41 ± 2.8% | 1 nM | 96 ± 8.1% |  | > 10000 nM | 49 ± 8.2% |  | 8.8 nM | 85 ± 8.1 % | 0.01 nM | 103 ± 7.1% | 1000 nM | 25 ± 1.3% |  | significant bias toward the inhibition of cAMP | greater affinity at CB1R relative to CB2R |  |  | CB1R versus CB2R selectivity, [^3H]CP55,940 displaced (hCB1R [1]; CB1R vs CB2R): displaced more [^3H]CP55,940 at CB1R relative to CB2R
CCCCCn1cc(C(=O)c2cccc3ccccc23)cc1-c1ccccc1 [JWH 145] | 110 nM | 69 ± 7.6 % | 0.03 nM | 82 ± 9.3% |  | > 10000 nM | 27 ± 9% | significantly less affinity | 860 nM | 70 ± 6.1 % | 61 nM | 86 ± 17% | 190 nM | 15 ± 1.7% |  | significant bias toward the inhibition of cAMP |  | more potent at CB1R relative to CB2R |  | 
CCCCCn1cc(C(=O)c2ccc(CCC)c3ccccc23)c2ccccc21 [JWH 182] | 0.77 nM | 17 ± 2.2% | 24 nM | 78 ± 9.4% | inactive at CB2R but an agonist at CB1R | 1600 nM | 110 ± 9.2% |  | 6.2 nM | 21 ± 1.7 % | 25 nM | 120 ± 11% | > 10000 nM | 13 ± 1.8% | inactive in βarrestin2; also recorded: Inactive at βarrestin2 | obligate cAMP-biased ligands |  |  | equipotent, but produced supramaximal EMax responses | CB1R versus CB2R selectivity, cAMP inhibition efficacy (hCB1R [2]; CB1R vs CB2R): greater efficacy at CB2R than CB1R
Cc1ccc(C(=O)c2cn(CCCCCCl)c3ccccc23)c2ccccc12 [MAM2201 N-(5-chloropentyl) analog] | 10 nM | 5.3 ± 3.0% | 2.8 nM | 98 ± 8.7% |  | > 10000 nM | 17 ± 2.7% | significantly less affinity | > 10000 nM | 40 ± 3.8 % | 580 nM | 120 ± 25% | > 10000 nM | 5.5 ± 1.9% | inactive in βarrestin2 | obligate cAMP-biased ligands | greater affinity at CB1R relative to CB2R | more potent at CB1R relative to CB2R | Inactive at βarrestin2 | βarrestin2 recruitment to CB2R, activity in words (hCB2R [6]; listed as MAM-2201 N-(5-chloropentyl) analog): Inactive at βarrestin2
CC(C)C(NC(=O)c1nn(Cc2cccc(F)c2)c2ccccc12)C(N)=O (centres unmarked) [meta-AB-FUBINACA] | 16 nM | 30 ± 2.9 % | 5.7 nM | 91 ± 12% | minimally active at CB1R but agonists at CB2R | > 10000 nM | 22 ± 6.9% | significantly greater affinity | 0.63 nM | 89 ± 6.3 % | 5.4 nM | 86 ± 13% | 280 nM | 130 ± 3.7% | not different with regard to potency relative to the reference agonist CP55,940, and produced supramaximal EMax responses | did not display a bias |  |  | Inactive at βarrestin2 | 
